Holding throughout (type): cell-based
The subject of assay [1] is A549 lung (NSLC) cancer cells. Kind of assay: Anti-proliferative activity, cell-titre luminescent viability assay. Conditions: Homo sapiens, 72 hours exposure. Summed up: (§1)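 Seeded cell lines attached 24 h (37° C, 5% CO2), then received compound for 72 h before a 30 min luminescent viability read versus untreated control. Four-point series (0.03–30 μM) gave IC50 by linear regression of semi-log percent-of-control plots; six-point series (0.1–30 μM) gave vehicle-normalized EC50 from variable-slope sigmoidal fits.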

Assay [2] relates to CaCo2 colorectal cancer cells. The description is as above. Conditions: Homo sapiens, Caco-2, 72 hours exposure. The gist of the method:
as §1

Assay [3] relates to DU145 prostate cancer cells. The assay is described as above. Conditions: Homo sapiens, DU-145, 72 hours exposure. The gist of the method:
as §1

Assay [4] has as its system MDA-MB-231 breast cancer cells. The assay is described as above. Conditions: Homo sapiens, 72 hours exposure. The gist of the method: as §1
Assay [5] concerns PC3 prostate cancer cells. The description is as above. The following applies: 72 hours exposure. The gist of the method: as §1
The next assay concerns SK-Mel-28 melanoma cells. The assay is described as above. Conditions: Homo sapiens, 72 hours exposure. The gist of the method:
as §1

For assay [6], the system named is SK-N-SH neuroblastoma cells. Described as above. The following applies: Homo sapiens, 72 hours exposure. The gist of the method: as §1
The subject of assay [7] is actin cytoskeleton in SK-N-SH neuroblastoma cells. Nature of the assay: Microfilament disruption assay (phalloidin staining, linear feature quantitation). Conditions: 0-40 μM, 24 hours post treatment. As for the experimental part: FIG. 1: Imaging and quantitation of actin filaments in SK-N-SH neuroblastoma cells treated with compound (A) 1007, (B) 1013 and (C) 1016. Cells were stained with 488-Atto-Phallodin and DAPI to visualize the actin filament bundles and the nucleus, respectively. Shown in the top panel is a representative gray scale immunofluorescent image from control (vehicle alone), 5 μM and 10 μM treated cells. […] The coloured lines indicate the detected actin filaments. Also shown is the quantitation of cell number, filament number/cell and filament number/cell area (μM^2). Statistical analysis was performed using a one way ANNOVA-multiple comparison where each drug treated group was compared to the control. ****p<0.0001, […].
The ability of compounds 1007, 1013 and 1016 to disrupt the actin cytoskeleton was assessed in vitro using the microfilament disruption assay (FIG. 1).
Briefly, SK-N-SH neuroblastoma cells were seeded at 1800 cells/well in a 384 Perkin Elmer High Content Imaging “Cell Carrier” plate and left to plate down 24 hours prior to treatment. Cells were then treated with 0-40 μM of the test compounds (1:2 serial dilution in a 10 point dose response). 24 hours post treatment, cells were fixed with 4% w/v paraformaldehyde (PBS), permeabilized with Triton-X-100 and stained with 488-Atto-Phallodin and DAPI to visualize the actin filament bundles and the nucleus respectively. Single plane images were obtained on the Perkin Elmer Opera confocal microscope using a 20× objective. Twelve fields of view per condition (representing approximately 300-800 cells) were imaged. Images were then exported and changes in the organization and numbers of actin filaments within the cell were quantitated using a linear feature detection algorithm developed by CSIRO (Vindin et al. 2014). This algorithm detects the “ridge lines” or “peaks” in local pixel intensity in the cell image. It is these “ridge lines” that correspond to actin filament bundles and allow us to quantitate the number of filaments per cell.

For a further assay, the system named is IL-6. Kind of assay: Cytokine release from LPS-stimulated PBMCs (HTRF). The following applies: PBMC, human PBMCs. The method, then:
(§2) The ability of compounds 1004, 1007 and 1018 to inhibit the release of cytokines TNF-α, IFN-γ, IL-6, IL-21, IL-17A and IL-23 was evaluated in vitro (Tables 2 and 3). Briefly, human peripheral blood mononuclear cells (PBMCs) were isolated from human peripheral blood by Histopaque density gradient centrifugation. The freshly isolated PBMCs were seeded at 50,000 cells/well in a 96-well half area plate. PBMCs were dosed with the test compounds (at 10 μM, 1 μM and 0.1 μM) and then incubated at 37° C. and 5% CO2 for 2 hours. To stimulate release of the cytokines IFN-γ, IL-21, IL-17A and IL-23, the PBMCs were treated with 50 ng/mL of phorbol 12-myristate 13-acetate (PMA) and 1 μg/mL of ionomycin and to stimulate the release of TNF-α and IL-6, PBMCs were treated with 100 ng/mL of lipopolysaccharide (LPS) from gram-negative bacteria. The PBMCs were then incubated at 37° C. and 5% CO2 for a further 6 hours and the cell supernatant was collected and a Homogenous Time Resolved Fluorescence (HTRF) assay was carried out following the manufacturer's instructions. Cytokine release from the PBMCs was captured using a Perkin Elmer ENVISION 2104 microplate reader set at 615 nm and 665 nm respectively.

Another assay deals with TNF-α. Nature of the assay: Cytokine release from LPS-stimulated PBMCs (HTRF). Conditions: PBMC, human PBMCs. The method, then:
as §2
For orientation: Time-resolved FRET reads energy transfer from a long-lived donor to a nearby acceptor.

The IC50 is the concentration that gives 50% inhibition. Broadly, the inhibition is the drop in the measured response relative to a control, in per cent. A high value points to strong suppression. On to `CCN(CC)CCCn1c2ccccc2c2cc(C(=O)N3CCN(CCc4ccc(F)cc4)CC3)ccc21` [Compound 1007, (9-(3-(diethylamino)propyl)-9H-carbazol-3-yl)(4-(4-fluorophenethyl)piperazin-1-yl)methanone], for which the IC50 in assay [1] came out at 1.9 µM; in assay [2] it was 2.8 µM; in assay [3], 3 µM; in assay [4], 2.4 µM; in assay [5], 3.2 µM; in the assay on SK-Mel-28 melanoma cells it was 1.2 µM. In assay [6], this molecule displayed an IC50 of 1.6 µM. Further, in assay [7], the “disruption of the actin cytoskeleton” value is listed as “disrupt the actin cytoskeleton in a dose-dependent manner”. Also, the inhibition at 0.1 µM with IL-6 (0.1 μM) came to 38%; in the assay on TNF-α (0.1 μM), 43%. Also, the inhibition at 1 µM amounted to 59% with IL-6 (1 μM) and 60% with TNF-α (1 μM). Besides, the inhibition at 10 µM with IL-6 (10 μM) was found to be 89%; in the assay with TNF-α (10 μM), 82%.

The record behind these values is patent publication US20170158636A1, “FUNCTIONALISED AND SUBSTITUTED CARBAZOLES AS ANTI-CANCER AGENTS” (Novogen Ltd., priority 2014, published 2017).
